Test results published in patent US8257928B2, “Methods for predicting and treating tumors resistant to drug, immunotherapy and radiation” (The Regents of the University of California, priority 2008, dated 2012).

Tested on: HMT3522 T4-2 cells
Assay: Affymetrix U133A 2.0 gene expression profiling of T4-2 N-CoR2 cells vs T4-2 vector cells grown on rBM;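 also: total RNA converted to biotin-labelled cRNA, hybridized to arrays and confocally scanned, probe set intensities computed by GC-RMA, genes kept if flagged present in at least 2 of 8 samples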
Assay type: cell-based, human
Settings: T4-2 N-CoR2 cells on rBM, 6 days
Protocol: HMT3522 T4-2 cells were derived from an epidermal growth factor (EGF)-dependent breast epithelial HMT3522 S-1 cells and an EGF-independent HMT3522 S-2 cells that spontaneously became malignant when injected into nude mice. HMT3522 T4-2 cells were propagated as monolayers on type I collagen-coated plastic surface in chemically defined medium consisting of DMEM:F12 medium (Invitrogen GIBCO), containing 250 ng/ml insulin (Boehringer Mannheim), 10 μg/ml transferrin (Sigma, St. Louis, Mo.), 2.6 ng/ml sodium splenetic (Collaborative Research), 10^−10 M estradiol (Sigma), 1.4×10^−6 M hydrocortisone (Collaborative Research), and 5 μg/ml prolactin (Sigma), as described in J. Cell Biol. 137:231-245 (1997).
Amphotropic retrovirus was produced in modified 293 cells or in Phoenix ampho cells (provided by Professor G. Nolan, Stanford Medical Center) with packaging vectors pCgp and pVSVG to boost viral titer. […] Sorted cells were expanded again in the presence of tetracycline.
To increase the yield of RNA for transcriptional profiling experiments, we grew 2×10^5 cells on top of rBM in a 60-mm tissue culture dish. As described, cells grown on top of rBM formed 3D cellular aggregates similar to those embedded in rBM. […] The cultures were maintained for 6 days before the collection of RNA samples.
Total RNA was extracted from monolayer culture or 3D culture by a modified TR1 reagent procedure as described (Biotechniques 19:942-945 (1995)) and purified using an RNeasy Mini Kit (Qiagen). Gene expression analysis was performed on an Affymetrix Human Genome U133A 2.0 GeneChip platform containing 22,283 probes according to the manufacturer's protocol (Affymetrix). Twenty micrograms of total RNA from each sample was processed to produce biotinylated cRNA targets. After hybridization, washing and staining arrays were scanned using a confocal scanner (Affymetrix). The hybridization intensity data was processed using the GeneChip Operating software (Affymetrix). Affymetrix .cel files (probe intensity files) were processed with ArrayAssist Lite (v3.4, Stratagene). The files were imported and processed with the GC-RMA algorithm to yield probe set intensities and additionally, Affymetrix Preset, Absent, Marginal flags were computed. These values were exported in .chp files, which were subsequently imported into the Partek Genomics Suite software (v6.2, Partek). The genes were filtered based on the Affymetrix P/A/M flags to retain only those genes that were present in at least 2 of the 8 samples.

N-CoR2
MEAN INTENSITY (N) 33304_at ISG20: 482.12 | MEAN INTENSITY (N) 38037_at HBEGF: 361.24 | MEAN INTENSITY (N) 38043_at FAM3A: 68.61 | MEAN INTENSITY (N) 53991_at DENND2A: 20.60 | MEAN INTENSITY (N) 200696_s_at GSN: 914.82 | MEAN INTENSITY (N) 200821_at LAMP2: 347.91 | MEAN INTENSITY (N) 200914_x_at KTN1: 343.43 | MEAN INTENSITY (N) 201007_at HADHB: 7136.54 | MEAN INTENSITY (N) 201132_at HNRPH2: 143.04 | MEAN INTENSITY (N) 201215_at PLS3: 411.68 | MEAN INTENSITY (N) 201472_at VBP1: 161.81 | MEAN INTENSITY (N) 201540_at FHL1: 1059.88 | MEAN INTENSITY (N) 201661_s_at ACSL3: 24.61 | MEAN INTENSITY (N) 201864_at GDI1: 358.31 | MEAN INTENSITY (N) 201865_x_at NR3C1: 332.55 | MEAN INTENSITY (N) 201887_at IL13RA1: 93.97 | MEAN INTENSITY (N) 201917_s_at SLC25A36: 28.72 | MEAN INTENSITY (N) 201996_s_at SPEN: 72.47 | MEAN INTENSITY (N) 202169_s_at AASDIIPPT: 25.30 | MEAN INTENSITY (N) 202277_at SPTLC1: 110.99 | MEAN INTENSITY (N) 202351_at ITGAV: 510.51 | MEAN INTENSITY (N) 202371_at TCEAL4: 269.43 | MEAN INTENSITY (N) 202376_at SERPINA3: 196.67 | MEAN INTENSITY (N) 202378_s_at LEPROT: 228.55 | MEAN INTENSITY (N) 202411_at IFI27: 155.11 | MEAN INTENSITY (N) 202439_s_at IDS: 270.52 | MEAN INTENSITY (N) 202602_s_at HTATSF1: 79.70 | MEAN INTENSITY (N) 202829_s_at SYBL1: 38.13 | MEAN INTENSITY (N) 202923_s_at GCLC: 167.13 | MEAN INTENSITY (N) 203042_at LAMP2: 638.66 | MEAN INTENSITY (N) 203156_at AKAP11: 21.24 | MEAN INTENSITY (N) 203186_s_at S100A4: 227.62 | MEAN INTENSITY (N) 203303_at DYNLT3: 44.35 | MEAN INTENSITY (N) 203453_at SCNN1A: 142.26 | MEAN INTENSITY (N) 203780_at EVA1: 133.29 | MEAN INTENSITY (N) 203821_at HBEGF: 977.38 | MEAN INTENSITY (N) 203917_at CXADR: 71.25 | MEAN INTENSITY (N) 204020_at PURA: 200.32 | MEAN INTENSITY (N) 204097_s_at RBMX2: 21.99 | MEAN INTENSITY (N) 204343_at ABCA3: 38.38 | MEAN INTENSITY (N) 204351_at S100P: 180.28 | MEAN INTENSITY (N) 204533_at CXCL10: 24.04 | MEAN INTENSITY (N) 204584_at L1CAM: 327.45 | MEAN INTENSITY (N) 204602_at DKK1: 259.47 | MEAN INTENSITY (N) 204881_s_at UGCG: 120.86 | MEAN INTENSITY (N) 204976_s_at AMMECR1: 36.28 | MEAN INTENSITY (N) 204981_at SLC22A18: 205.14 | MEAN INTENSITY (N) 205097_at SLC26A2: 85.76 | MEAN INTENSITY (N) 205128_x_at PTGS1: 125.00 | MEAN INTENSITY (N) 205220_at GPR109B: 645.95 | MEAN INTENSITY (N) 205315_s_at SNTB2: 87.78 | MEAN INTENSITY (N) 205363_at BBOX1: 120.76 | MEAN INTENSITY (N) 205428_s_at CALB2: 143.13 | MEAN INTENSITY (N) 205569_at LAMP3: 64.51 | MEAN INTENSITY (N) 205595_at DSG3: 177.64 | MEAN INTENSITY (N) 205623_at ALDH3A1: 77.90 | MEAN INTENSITY (N) 205709_s_at CDS1: 42.93 | MEAN INTENSITY (N) 205767_at EREG: 183.71 | MEAN INTENSITY (N) 205809_s_at WASL: 77.44 | MEAN INTENSITY (N) 205900_at KRT1: 95.82 | MEAN INTENSITY (N) 206295_at IL18: 188.27 | MEAN INTENSITY (N) 206342_x_at IDS: 267.58 | MEAN INTENSITY (N) 206645_s_at NR0B1: 107.59 | MEAN INTENSITY (N) 207719_x_at CEP170: 21.69 | MEAN INTENSITY (N) 207941_s_at RNPC2: 78.71 | MEAN INTENSITY (N) 208241_at NRG1: 18.19 | MEAN INTENSITY (N) 209022_at STAG2: 24.13 | MEAN INTENSITY (N) 209028_s_at ABI1: 109.59 | MEAN INTENSITY (N) 209194_at CETN2: 187.44 | MEAN INTENSITY (N) 209289_at NFIB: 64.90 | MEAN INTENSITY (N) 209726_at CA11: 105.08 | MEAN INTENSITY (N) 209792_s_at KLK10: 505.96 | MEAN INTENSITY (N) 210367_s_at PTGES: 246.35 | MEAN INTENSITY (N) 210387_at HIST1H2BG: 579.17 | MEAN INTENSITY (N) 211122_s_at CXCL11: 12.87 | MEAN INTENSITY (N) 211343_s_at COL13A1: 88.75 | MEAN INTENSITY (N) 211612_s_at IL13RA1: 104.96 | MEAN INTENSITY (N) 211671_s_at NR3C1: 263.10 | MEAN INTENSITY (N) 212007_at UBXD2: 117.00 | MEAN INTENSITY (N) 212221_x_at IDS: 571.11 | MEAN INTENSITY (N) 212223_at IDS: 186.65 | MEAN INTENSITY (N) 212414_s_at SEPT6: 68.28 | MEAN INTENSITY (N) 212415_at SEPT6: 11.03 | MEAN INTENSITY (N) 212510_at GPD1L: 22.53 | MEAN INTENSITY (N) 212531_at LCN2: 420.45 | MEAN INTENSITY (N) 212605_s_at: 41.36 | MEAN INTENSITY (N) 212616_at CHD9: 17.34 | MEAN INTENSITY (N) 212622_at TMEM41B: 26.02 | MEAN INTENSITY (N) 212640_at PTPLB: 459.88 | MEAN INTENSITY (N) 213016_at: 34.12 | MEAN INTENSITY (N) 213083_at SLC35D2: 234.84 | MEAN INTENSITY (N) 213135_at TIAM1: 24.42 | MEAN INTENSITY (N) 213229_at DICER1: 464.53 | MEAN INTENSITY (N) 213294_at: 18.29 | MEAN INTENSITY (N) 213593_s_at TRA2A: 34.25 | MEAN INTENSITY (N) 213729_at PRPF40A: 15.54 | MEAN INTENSITY (N) 214022_s_at IFITM1: 4135.74 | MEAN INTENSITY (N) 214112_s_at CXorf40A: 479.14 | MEAN INTENSITY (N) 214718_at GATAD1: 33.09 | MEAN INTENSITY (N) 214722_at NOTCH2NL: 159.38 | MEAN INTENSITY (N) 215206_at EXT1: 106.70 | MEAN INTENSITY (N) 215245_x_at FMR1: 78.43 | MEAN INTENSITY (N) 215813_s_at PTGS1: 76.88 | MEAN INTENSITY (N) 216095_x_at MTMR1: 318.26 | MEAN INTENSITY (N) 216942_s_at CD58: 34.65 | MEAN INTENSITY (N) 217388_s_at KYNU: 634.02 | MEAN INTENSITY (N) 217813_s_at SPIN: 59.32 | MEAN INTENSITY (N) 217947_at CMTM6: 498.31 | MEAN INTENSITY (N) 217948_at: 706.40 | MEAN INTENSITY (N) 217975_at WBP5: 441.28 | MEAN INTENSITY (N) 218053_at PRPF40A: 132.43 | MEAN INTENSITY (N) 218085_at CHMP5: 84.03 | MEAN INTENSITY (N) 218086_at NPDC1: 330.55 | MEAN INTENSITY (N) 218163_at MCTS1: 521.74 | MEAN INTENSITY (N) 218237_s_at SLC38A1: 608.07 | MEAN INTENSITY (N) 218668_s_at RAP2C: 54.25 | MEAN INTENSITY (N) 218986_s_at FLJ20035: 29.34 | MEAN INTENSITY (N) 219001_s_at WDR32: 26.25 | MEAN INTENSITY (N) 219010_at C1orf106: 585.64 | MEAN INTENSITY (N) 219045_at RHOF: 540.25 | MEAN INTENSITY (N) 219351_at TRAPPC2: 71.62 | MEAN INTENSITY (N) 219356_s_at CHMP5: 242.88 | MEAN INTENSITY (N) 219956_at GALNT6: 147.85 | MEAN INTENSITY (N) 219995_s_at FLJ13841: 795.33 | MEAN INTENSITY (N) 221553_at RP11-217II1.1: 90.64 | MEAN INTENSITY (N) 221581_s_at LAT2: 163.24 | MEAN INTENSITY (N) 221766_s_at FAM46A: 25.10 | MEAN INTENSITY (N) 221829_s_at TNPO1: 213.54 | MEAN INTENSITY (N) 221841_s_at KLF4: 264.55 | MEAN INTENSITY (N) 221844_x_at: 96.74 | MEAN INTENSITY (N) 222242_s_at KLK5: 26.38 | MEAN INTENSITY (N) 222266_at C19orf2: 25.69
